Measurements taken from patent publication US4665075A, “Derivatives of hydroxy- or amino-substituted (piperidinylalkyl)quinazolines” (Janssen Pharmaceutica N.V., priority 1985, dated 1987).

What was measured:
[1] = system: cyanosis, gastric lesions and shock induced by compound 48/80; conditions: rats injected with compound 48/80; cited from earlier work
[2] = system: gastric lesions induced by compound 48/80; experiment: Test 2: Effects in gastric lesion tests; lesions induced by compound 48/80; format: in vivo, rat (male, Wistar inbred strain); conditions: oral, 2 hours before compound 48/80 1 mg/kg i.v.; stomachs inspected 4 hours later
Description: Test 2: Effects in gastric lesion tests
The shock, followed by dead, can be avoided if the rats are pretreated with a classical H1 antagonist.
Male rats of a Wistar inbred strain, weighing 220-250 g, were starved overnight, water being available ad libitum. The test compounds were administered orally as a solution or as a suspension in aqueous medium. A control rat and a "blank" rat receive the test compound. One hour later 5-[4-(diphenylmethyl)-1-piperazinyl-methyl]-1-methyl-1H-benzimidazole-2-methanol is adhministered subcutaneously to all rats at the dose of 2.5 mg/kg. […] Five minutes after the injection the intensity of purple-blue coloration (cyanosis) of the extremities was scored as 0 (absent), + (moderate) or ++ (intense). Four hours after the intravenous injection of compound 48/80 the rats were decapitated and the stomachs were removed. Subsequently the stomachs were inspected for distension and contents (blood, fluid, food) and thoroughly rinsed. The macroscopic lesions were scored from 0 to +++, 0 corrsponding to complete absence of visible lesions and the highest score corresponding to reddish rough patches covering more than half the glandular area.
The compounds listed in table 1 are not given for the purpose of limiting the invention thereto but only to exemplify the useful pharmacological activities of all the compounds within the scope of formula (I).

[3] = system: serotonin-induced contraction of the caudal artery of the rat; experiment: Test 1: Antagonistic activity on the effect of serotonin on the caudal artery of the rat; conditions: rat caudal artery strips; serotonin 40 ng/ml; measured 5 minutes after adding the drug
Description: Test 1: Antagonistic activity on the effect of serotonin on the caudal artery of the rat
Caudal arteries from fasted male rats (210-235 g) were used in the test. Two helical strips having a length of 5-6 cm and a width of 2 mm were obtained from each artery and mounted vertically in a 100 ml organ bath containing an oxygenated Krebs-Henseleit solution. Submaximal contractions of the arterial strips were produced by adding single doses of serotonin (40 ng/ml) to the organ bath for 2 minutes with each time an interval of 10 minutes. The amplitude of the contraction is measured before and 5 minutes after adding the drug. After washing out, the agonist was added again three times in order to see whether the contraction is restored and normalized.
In this connection the ED50 -values are the minimal concentrations of the concerned drugs which reduce the amplitude of the contraction to at least 50% of its normal value.

| SMILES | prevention of the abnormal gastric distension [1] | prevention of the cyanosis of ears and extremities [1] | prevention of the lesions in the glandular area of the stomach [1] | Gastric lesion ED50 (dose at which distension of the stomach and lesions in the glandular area are completely absent in 50% of the test rats) [2] [mg/kg] | Caudal artery ED50 (minimal concentration which reduces the amplitude of the serotonin-induced contraction to at least 50% of its normal value) [3] [ng/mL] |
| --- | --- | --- | --- | --- | --- |
| CN1CCN2c3ccccc3Cc3ccccc3C2C1 (centres unmarked) [mianserin] | prevent completely | prevent completely | prevent completely | – | – |
| CN1C[C@H](CNC(=O)OCc2ccccc2)C[C@@H]2c3cccc4c3c(cn4C)C[C@H]21 [metergoline] | prevent completely | prevent completely | prevent completely | – | – |
| CC(=O)Nc1ccc2c(=O)n(CCN3CCC(C(=O)c4ccc(F)cc4)CC3)c(=O)[nH]c2c1 [Compound 22] | – | – | – | 0.04 | 0.37 |
| CN(C)CCCSc1ccccc1NC(=O)/C=C/c1ccccc1 [cinanserin] | prevent completely | prevent completely | prevent completely | – | – |
| CN1CCC(=C2c3ccccc3C=Cc3ccccc32)CC1 [cyproheptadine] | prevent completely | prevent completely | prevent completely | – | – |
| CN1CCC(=C2c3ccccc3CCc3sccc32)CC1 [pizotifen] | prevent completely | prevent completely | prevent completely | – | – |
| CC(=O)Nc1ccc2c(=O)n(CCN3CCC(C(=O)c4ccc(F)cc4)CC3)c(=S)[nH]c2c1 [Compound 19, N-[3-[2-[4-(4-fluorobenzoyl)-1-piperidinyl]ethyl]-1,2,3,4-tetrahydro-4-oxo-2-thioxo-7-quinazolinyl]acetamide] | – | – | – | 0.01 | 0.32 |
| NC(=O)C1(N2CCCCC2)CCN(CCCC(=O)c2ccc(F)cc2)CC1 [pipamperone] | prevent completely | prevent completely | prevent completely | – | – |
| Nc1ccc2c(=O)n(CCN3CCC(C(=O)c4ccc(F)cc4)CC3)c(=O)[nH]c2c1 [Compound 12, 7-amino-3-[2-[4-(4-fluorobenzoyl)-1-piperidinyl]ethyl]-2,4(1H,3H)-quinazolinedione] | – | – | – | 0.04 | < 0.63 |
| Nc1ccc2c(=O)n(CCCCN3CCC(C(=O)c4ccc(F)cc4)CC3)c(=S)[nH]c2c1 [Compound 11, 7-amino-3-[4-[4-(4-fluorobenzoyl)-1-piperidinyl]butyl]-2,3-dihydro-2-thioxo-4(1H)-quinazolinone] | – | – | – | 0.63 | < 0.63 |
| CC[C@@H](CO)NC(=O)[C@@H]1C=C2c3cccc4c3c(cn4C)C[C@H]2N(C)C1 [methysergide] | prevent completely | prevent completely | prevent completely | – | – |
| CC(=O)Nc1ccc2c(=O)n(CCCCN3CCC(C(=O)c4ccc(F)cc4)CC3)c(=O)[nH]c2c1 [Compound 18, N-[3-[4-[4-(4-fluorobenzoyl)-1-piperidinyl]butyl]-1,2,3,4-tetrahydro-2,4-dioxo-7-quinazolinyl]-acetamide] | – | – | – | 0.08 | 0.32 |
| O=C(CCCN1CCC2(CC1)C(=O)NCN2c1ccccc1)c1ccc(F)cc1 [spiperone] | prevent completely | prevent completely | prevent completely | – | – |
| Nc1ccc2c(=O)n(CCCCN3CCC(C(=O)c4ccc(F)cc4)CC3)c(=O)[nH]c2c1 [Compound 8, 7-amino-3-[4-[4-(4-fluorobenzoyl)-1-piperidinyl]butyl]-2,4(1H,3H)-quinazolinedione] | – | – | – | 0.04 | 0.32 |
| Nc1ccc2c(=O)n(CCN3CCC(C(=O)c4ccc(F)cc4)CC3)c(=S)[nH]c2c1 [Compound 9, 7-amino-3-[2-[4-(4-fluorobenzoyl)-1-piperidinyl]ethyl]-2,3-dihydro-2-thioxo-4(1H)-quinazolinone] | – | – | – | 0.005 | 0.18 |
